Assay results reported in paper PMC12064818, “A general assay platform to study protein pharmacology using ligand-dependent structural dynamics” (Nature Communications, 2025).
pEC50: −log10 of the molar value. Where a name gives a salt, the structure may show the parent alone. Read-outs that look alike come from different tables or passages of the source.

How the values were obtained:
PKA-N-HiBiT = PKA-N-HiBiT (Homo sapiens, UniProt P17612); assay: SDR assay, PKA-N-HiBiT
[1] = target: T1, ABL1-N-HiBiT kinase domain (Homo sapiens, UniProt P00519); assay: SDR assay, ABL1-N-HiBiT; settings: for ABL1 SDR pSDR50: heatmap data, 128 kinase inhibitors; for pEC50: read-out: SDR Ave SDR50, average
T1 sequence (P00519 233-500): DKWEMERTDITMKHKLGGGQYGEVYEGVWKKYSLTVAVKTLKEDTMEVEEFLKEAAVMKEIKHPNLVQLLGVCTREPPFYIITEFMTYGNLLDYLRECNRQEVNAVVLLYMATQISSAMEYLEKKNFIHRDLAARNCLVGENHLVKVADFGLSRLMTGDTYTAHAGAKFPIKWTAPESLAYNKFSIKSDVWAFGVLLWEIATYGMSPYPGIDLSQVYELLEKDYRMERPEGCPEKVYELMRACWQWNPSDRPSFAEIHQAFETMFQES

PKA = settings: cited from earlier work
[2] = PKA-N-HiBiT qHTS, SDR assay, average maximal response
[3] = ABL1-N-HiBiT qHTS, SDR assay, average maximal response
[4] = annotation yes/no for kinase library compound, source not given
[5] = ABL1-N-HiBiT qHTS, average maximal SDR response
[6] = read-out: PKA SDR Ave SDR50, PKA-N-HiBiT qHTS, SDR assay, average
[7] = ABL1-N-HiBiT qHTS, unit inferred

Row | Compound | SDR Ave Max Response (PKA-N-HiBiT; [2]) | SDR Ave Max Response [1, 5] | ABL1 SDR pSDR50 [1] | Annotated PKA activity (PKA; [4]) | further results
1 | O=C(NCCCNc1nc(Nc2ccc(N3CCOCC3)cc2)ncc1C1CC1)C1CCC1 [MRT-68601 HCl] | 1.65 | – | – | no | SDR Ave Max Response [1, 3]: -7.81
2 | Cc1cc(F)ccc1-c1nc(NCCNC(=N)NC#N)nc2c1ccc(=O)n2-c1c(F)cccc1F [SB 706504] | 3.70 | 3.05 | – | no | –
3 | STF-083010 | 1.50 | -0.63 | – | no | –
4 | CN1CCN([C@H]2CC[C@H](n3cc(-c4ccc(Oc5ccccc5)cc4)c4c(N)ncnc43)CC2)CC1 [A-419259] | -12.03 | 100.16 | – | no | –
5 | CO[C@H]1/C=C/O[C@@]2(C)Oc3c(C)c(O)c4c(O)c(c(/C=N\N5CCN(C6CCCC6)CC5)c(O)c4c3C2=O)NC(=O)C(C)=C/C=C/[C@H](C)[C@H](O)[C@@H](C)[C@@H](O)[C@@H](C)[C@H](OC(C)=O)[C@@H]1C [Rifapentin] | -45.77 | -34.67 | 4.28 | no | pEC50 (PKA-N-HiBiT; [6]): 4.77
6 | Cc1nc2ccc(-n3ncc(C(=O)c4cc5ccccc5[nH]4)c3N)cc2[nH]1 [CH-5183284] | 4.01 | 37.79 | 5.61 | no | pEC50 [1, 7]: 5.60
7 | COC(=O)Nc1ccc(-c2nc(N3CCOCC3)c3cnn(C4CCN(C(=O)OC)CC4)c3n2)cc1 [WYE-354] | 4.88 | 1.70 | – | no | –
8 | UK-371804 | 6.35 | – | 4.69 | no | SDR Ave Max Response [1, 3]: -28.31; pEC50 ([1]; ABL1-N-HiBiT qHTS, SDR assay): 4.58
9 | CN1CCN(CCCNc2ncc(Cl)c(-c3cc4c(C(=O)NC5CC5)cccc4s3)n2)CC1 [LY-2409881] | -2.90 | -19.98 | 5.21 | no | pEC50 [1, 7]: 5.10
10 | COc1ccc(-n2c(C)c([N+](=O)[O-])c3ccc(O)cc32)cc1 [ID-8] | 2.68 | 10.66 | – | no | –
11 | Cc1cc(-c2cc(O)ccc2Cl)cc2nnc(Nc3ccc(OCCN4CCCC4)cc3)nc12 [TG 100572 HCl] | -13.83 | – | – | no | –
12 | C[C@@H]1CN(CC(=O)Nc2ccc3c(c2)Cc2cccc(-c4cc(=O)cc(N5CCOCC5)o4)c2S3)C[C@H](C)O1 [KU-60019] | -4.54 | -23.55 | – | no | –
13 | Cc1n[nH]c2ncc(C(=O)N3CCC[C@H]3c3ccc(Cl)cc3)cc12 [MSC2530818] | 40.05 | – | – | no | pEC50 (PKA-N-HiBiT): 4.85; pEC50 (PKA-N-HiBiT; [6]): 4.84; SDR Ave Max Response [1, 3]: 4.30
14 | Mps1-IN-3 | 14.72 | 66.03 | 4.80 | no | –
15 | O=C(Nc1ccc(OC(F)(F)F)cc1)c1sccc1NCc1ccnc2ccccc12 [OSI-930] | 9.10 | 17.46 | 5.04 | no | pEC50 [1, 7]: 5.03
16 | Nc1nc(NCCNc2ncc(-n3ccnc3)c(-c3ccc(Cl)cc3Cl)n2)ccc1[N+](=O)[O-] [CT-98014] | – | -28.48 | 4.54 | – | pEC50 (PKA-N-HiBiT): 4.93; SDR Ave Max Response (PKA-N-HiBiT): -28.99; pEC50 (PKA-N-HiBiT; read-out: PKA SDR Ave SDR50): 4.89; pEC50 [1, 7]: 4.47; Annotated PKA activity (PKA): no
17 | N#Cc1ccc2ncnc(NCCc3ccccc3)c2c1 [Senexin A] | -4.85 | -0.36 | – | no | –
18 | CC(C)CCN1c2nc(Nc3cc(F)c(O)c(F)c3)ncc2N(C)C(=O)C1C (stereo not shown) [BI-D1870] | -9.75 | – | 5.36 | no | SDR Ave Max Response [1, 3]: -47.47; pEC50 ([1]; ABL1-N-HiBiT qHTS, SDR assay): 5.33
19 | Cc1cc(Nc2ncc3cc(-c4c(Cl)cccc4Cl)c(=O)n(C)c3n2)ccc1F [PD 180970] | -17.64 | – | – | no | –

Row | Compound | SDR Ave Max Response (PKA-N-HiBiT; [2]) | SDR Ave Max Response [1, 5] | ABL1 SDR pSDR50 [1] | Annotated PKA activity (PKA; [4]) | further results
20 | O=C(NOCC(O)CO)c1cc(Br)c(F)c(F)c1Nc1ccc(I)cc1F (stereo not shown) [PD-318088] | -21.34 | -2.26 | – | no | PKA SDR Ave pSDR50 (PKA-N-HiBiT; PKA-N-HiBiT qHTS, SDR assay, average): 4.33; pEC50 (PKA-N-HiBiT; [6]): 4.21
21 | CC1(C)OCCn2c1nc1c(N3CCOCC3)nc(-c3cnc(N)nc3)nc12 [GDC-0084] | 3.97 | – | 5.16 | no | SDR Ave Max Response [1, 3]: 58.32; pEC50 ([1]; ABL1-N-HiBiT qHTS, SDR assay): 5.15
22 | PLX-4720 | 5.33 | 37.18 | 4.63 | no | pEC50 [1, 7]: 4.61
23 | PHT-427 | -6.93 | 10.06 | – | no | –
24 | COc1ccc(-n2c(SCC#N)nc3sc4c(c3c2=O)CCCC4)cc1 [Necrostatin-5] | 1.51 | – | – | no | SDR Ave Max Response [1]: -3.84
25 | O=C(Nc1cc(C(F)(F)F)ccc1N1CCCCC1)c1ccncc1 [SRPIN340] | 1.60 | -4.31 | – | no | –
26 | Cc1cc(F)ccc1-c1nc(NC(CO)CO)nc2c1ccc(=O)n2-c1c(F)cccc1F [Dilmapimod] | 3.69 | – | – | no | SDR Ave Max Response [1, 3]: -3.68
27 | C=CC(=O)N1CCC(Oc2cc3c(Nc4ccc(Cl)c(Cl)c4F)ncnc3cc2OC)CC1 [Poziotinib] | 8.47 | 56.26 | 4.03 | no | –
28 | COc1cc2c(cc1OC)-c1[nH]nc(Nc3cccc(F)c3)c1C2 [PDGF RTK inhibitor IV] | 5.85 | – | – | no | –
29 | CaMKII-IN-1 | -11.95 | -23.39 | 4.38 | no | –
30 | Indirubin | 5.53 | – | – | no | SDR Ave Max Response [1]: 2.52
31 | Cc1ccc(C(=O)Nc2ccc(Oc3cc4cnn(C)c4cc3-c3cn[nH]c3)c(F)c2)c(=O)n1-c1ccc(F)cc1 [Merestinib] | 8.78 | 22.76 | – | no | –
32 | CCN1C(=O)CNc2ncc(-c3ccc(-c4nc[nH]n4)nc3C)nc21 [CC-115] | -2.34 | – | – | no | SDR Ave Max Response [1, 3]: 31.14
33 | O=C(NC1CCNCC1)c1n[nH]cc1NC(=O)c1c(Cl)cccc1Cl [AT-7519] | -18.47 | 9.60 | – | no | –
34 | O=C(c1cccc(Cl)c1F)N1CCN(Cc2cccc(Nc3nccs3)n2)CC1 [MK-8745] | -13.81 | 59.57 | 5.27 | no | pEC50 [1, 7]: 5.24
35 | CNC(=O)c1ccccc1Sc1ccc2c(/C=C/c3ccccn3)n[nH]c2c1 [Axitinib] | -3.36 | – | – | no | –
36 | C/N=c1\ncc2cc(-c3cc(NC(=O)NCCC(C)(C)C)c(F)cc3C)c(C)nc2[nH]1 [LY-3009120] | 2.67 | – | – | no | –
37 | CN1CCN(CCOc2cc(OC3CCOCC3)c3c(Nc4c(Cl)ccc5c4OCO5)ncnc3c2)CC1 [Saracatinib] | 3.81 | – | – | no | –

The next lines start with results.

Row | SDR Ave Max Response (PKA-N-HiBiT; [2]) | SDR Ave Max Response [1, 5] | ABL1 SDR pSDR50 [1] | Compound | Annotated PKA activity (PKA; [4]) | further results
38 | 10.58 | 21.22 | – | C[C@@H]1CCNC(=O)c2cc3ccc(C(=O)Nc4nc5ccccc5n4CCCN(C)C)cc3n21 [BIX-02565] | no | –
39 | 10.49 | – | – | Cn1ncc(NC(=O)c2nc(-c3c(F)cccc3F)sc2N)c1N1CC[C@@H](N)[C@H](F)CC1 [GDC-0339] | no | SDR Ave Max Response [1, 3]: 12.78
40 | 3.01 | 9.81 | – | C=CC(=O)Nc1cccc(Oc2nc(Nc3ccc(N4CCN(C)CC4)cc3OC)ncc2Cl)c1 [WZ4002] | no | –
41 | -6.66 | – | – | Cc1cc(NC(=O)c2ccc(C)c(Nc3nccc(-c4cccnc4)n3)c2)cc(-n2cnc(C)c2)c1 [NSC762948] | no | –
42 | 35.28 | 52.23 | 4.46 | N#Cc1cccc(-c2c[nH]c3ncnc(N4CCOCC4)c23)c1 [PF-06447475] | no | pEC50 (PKA-N-HiBiT): 4.71; pEC50 (PKA-N-HiBiT; [6]): 4.68; pEC50 [1, 7]: 4.45
43 | 63.28 | -4.45 | – | NC1(C(=O)N[C@@H](CCO)c2ccc(Cl)cc2)CCN(c2nc[nH]c3nccc2-3)CC1 [AZD-5363] | yes | –
44 | -2.45 | – | – | Cc1cn(-c2cccc(NC(=O)c3ccc(C)c(Nc4nccc(-c5cccnc5)n4)c3)c2)cn1 [NSC762949] | no | –
